From patent US10596150B2, “Antifungal agents” (F2G LIMITED, priority 2014, dated 2020)
≈ marks a conversion by molar mass, not a printed value.

Key:
L. prolificans FMR 3569 = test: Lomentospora prolificans FMR 3569 disseminated infection model (survival, tissue burden); assay type: in vivo, Male OF-1 mice; settings: VRC 25 mg/kg p.o. QD; Example 1 20 mg/k p.o. BID; from day 1 after challenge for 9 days
Experimental: L. prolificans (also known as Scedosporium prolificans or S. prolificans) was grown on Potato Dextrose Agar (PDA) for 5 days at 35° C. On the day of infection, cultures were flooded with sterile saline and filtered through sterile gauze to remove clumps of conidia and hyphae. The resulting suspensions were adjusted by haemocytometer count and by serial plating to confirm viability.
Male OF-1 mice with a mean weight of 30 g were used in the experiment. Mice were housed in standard boxes with food and water ad libitum.
Mice were rendered neutropenic two days prior to infection by an intraperitoneal (i.p.) injection of 200 mg/kg of cyclophosphamide, and once every 5 days thereafter (Clemons et al, 2005).
Mice were challenged with 5×10^4 CFU/animal of L. prolificans FMR 3569, in a volume of 0.2 ml of sterile saline into the lateral tail vein.
Treatments consisted of (a) voriconazole (VRC) (Vfend; Pfizer S. A., Madrid, Spain) at 25 mg/kg p.o, by gavage QD; (b) Example 1 at 20 mg/k, p.o, by gavage BID; and (c) no treatment. From 3 days before infection, mice that received VRC were given grapefruit juice instead of water (Sugar & Liu, 2001). All treatments began 1 day after challenge, and the therapy lasted for 9 days. Controls received no treatment.
For survival studies groups of 10 mice were randomly established for each therapy. Mortality was recorded daily until the end of the experiment. […]

A. flavus = test: Minimum Inhibitory Concentration (MIC), RPMI medium; assay type: cell-based; settings: Aspergillus flavus, >80% growth inhibition
Experimental: (§1) Between 1 and 5 mgs of the compound were accurately weighed out into a sterile Eppendorf tube. The compound was dissolved in DMSO to give a solution containing 5 mg/mL. Tubes were stored at −20° C. until required.
(§2) On the day of testing thawed solutions were vortex mixed to ensure homogeneity. 30 μL of solution was removed and added to 570 μL of sterile water in a separate sterile Eppendorf. The thoroughly mixed solution was used to prepare a series of doubling dilutions in water, in a deep well plate. Thirteen replicate plates were prepared using a Minitrak by aspirating 20 μL from each well into eleven clear polystyrene 96 well plates.
(§3) Spores of Aspergillus and Scedosporium were harvested from cultures grown on Sabarauds agar for 5 days, and resuspended in PBS/Tween 80 to approx 1×10^7 cfu/mL. Each organism suspension was diluted in RPMI medium, containing 2% glucose and 0.135 M MOPS buffer (pH 7.0) to 0.5-2×10^4 cfu/mL. 80 μL of an organism suspension was added to each well of the plate containing drug dilutions.
(§4) This produced MIC plates with a drug range 50-0.05 mg/L and organism inocula of 1-2×10^4 cfu/mL. All plates were incubated for 24-48 h at 35° C. Growth was assessed by monitoring the optical density at 485 nm for each well. The MIC of a compound is the lowest drug concentration that inhibits growth of an organism by >80% compared with a drug free control.

A. fumigatus 210 = test: as above; assay type: cell-based; settings: Aspergillus fumigatus, >80% growth inhibition
Experimental: as §1, §2, §3, §4

A. fumigatus = test: as above; assay type: cell-based; settings: Aspergillus fumigatus, >80% growth inhibition
Experimental: as §1, §2, §3, §4

A. niger = test: as above; assay type: cell-based; settings: Aspergillus niger, >80% growth inhibition
Experimental: as §1, §2, §3, §4

A. terreus 49 = test: as above; assay type: cell-based; settings: Aspergillus terreus, >80% growth inhibition
Experimental: as §1, §2, §3, §4

A. terreus = test: as above; assay type: cell-based; settings: Aspergillus terreus, >80% growth inhibition
Experimental: as §1, §2, §3, §4

[1] = system: Scedosporium apiospermum 13486; test: as above; assay type: cell-based
Experimental: as §1, §2, §3, §4

[2] = system: Scedosporium apiospermum 15848; test: as above; assay type: cell-based
Experimental: as §1, §2, §3, §4

[3] = system: Scedosporium apiospermum 451; test: as above; assay type: cell-based
Experimental: as §1, §2, §3, §4

[4] = system: Scedosporium apiospermum 4883; test: as above; assay type: cell-based
Experimental: as §1, §2, §3, §4

[5] = system: Scedosporium apiospermum 7935; test: as above; assay type: cell-based
Experimental: as §1, §2, §3, §4

[6] = system: Scedosporium apiospermum 8353; test: as above; assay type: cell-based
Experimental: as §1, §2, §3, §4

[7] = system: Scedosporium prolificans 18389; test: as above; assay type: cell-based; settings: Lomentospora prolificans
Experimental: as §1, §2, §3, §4

[8] = system: Scedosporium prolificans 206; test: as above; assay type: cell-based; settings: Lomentospora prolificans
Experimental: as §1, §2, §3, §4

[9] = system: Scedosporium prolificans 6322; test: as above; assay type: cell-based; settings: Lomentospora prolificans
Experimental: as §1, §2, §3, §4

[10] = system: Scedosporium species 15849; test: as above; assay type: cell-based
Experimental: as §1, §2, §3, §4

[11] = system: A. fumigatus strain A1163; test: Murine survival model of Aspergillus fumigatus infection (survival, kidney burden, serum galactomannan); assay type: in vivo, male CD-1 mice; settings: positive control; 10 mg/kg b.i.d. by the oral route; A. fumigatus infected mice
Experimental: Murine survival models are frequently used to assess the efficacy of antifungal drugs against Aspergillus. The models used in the development of Example 1 were carried out at Euprotec Ltd (Manchester) a contract research organisation (CRO) with extensive experience in the evaluation of antifungal drugs. The typical model involves the use of groups of 6-10 male CD-1 mice per treatment group. Mice are immunosuppressed with 200 mg/kg cyclophosphamide injected intraperitoneal 3 days prior to infection. A. fumigatus strain A1163 is cultured on Sabourauds agar for 4-6 days at 35° C. Spores are harvested in phosphate buffered saline (PBS)/Tween, the suspension diluted and the number of spores enumerated. Mice are then infected with an intravenous injection of A. fumigatus spores given through the lateral tail vein. The typical inoculum is 6-8×10^4 cfu/mouse and is sufficient to kill all untreated animals by Day 4-6. The animals die of IA and Aspergillus organisms can be detected in many body tissues. Treatment is typically commenced soon after infection but delays of up to 24 h following infection produce a more challenging model. Treatment is continued for 7-9 days. Treatment may be up to 3 times daily using an oral dosing. Following cessation of treatment, animals are observed for 1-2 days, and then sacrificed. Relevant controls treated with oral drug-free vehicle are always included; ideally there should be no survivors in this group. A positive control consisting of an antifungal drug such as Reference Example 10 was used. This compound consistently produces 100% survival at doses of 10 mg/kg b.i.d. dosed by the oral route. Most models are run as temporary neutropenic models where only a single dose of cyclophosphamide is administered.
The fungal burden in the kidney can be determined on animals surviving to the end of the study and this can help provide efficacy discrimination between groups where all animals survive. Tissue burdens are carried out by removing the kidneys from animals when they are culled at the end of the study. These are homogenised in saline and plated onto Sabourauds agar and incubated at 35° C. for 72 h. Aspergillus colonies are counted and the amount of aspergillus per gram of kidney calculated. The results are expressed as colony forming units per gramme (cfu/g). […] However, data from studies where tissue burden has been carried out on untreated animals at day 4 or 5 has shown that tissue burdens are typically in excess of 20,000 cfu/g and may exceed 100,000 cfu/g in some studies.
In some of the survival studies described below serum samples were collected from surviving mice at the end of the study or on mice that succumbed to infection during the study to examine the effect of Example 1 on galactomannan levels and to see if there was a relationship between galactomannan levels and survival.
The galactomannan assays were carried out on serum samples that had been stored frozen at −80° C. Samples were thawed and assayed using a Platelia Aspergillus Ag enzyme-linked immunosorbent assay (ELISA) kit (Biorad). The assay was modified slightly to take into account the small sample volumes available from mice. If assay results were high a repeat test was carried out on a sample diluted in normal mouse serum. The amount of galactomannan in a sample is presented as a galactomannan index. The mean galactomannan index for each group was calculated and is presented graphically against each treatment regimen.
The survival study carried assessed the dose response of Example 1. Example 1 was dosed orally to A. fumigatus infected mice at 2 dose levels 10 mg/kg b.i.d. and 3 mg/kg b.i.d. Therapy was initiated at 24 h post infection and therapy continued for 8 days. At the end of the study kidney burdens were measured on surviving animals. In addition serum samples were taken at the end of the study from all surviving animals and from each animal that died during the course of the study. […]

Row | SMILES | survival rates compared with the control (FIG. 7) (L. prolificans FMR 3569) | MIC (A. flavus) | MIC (A. fumigatus 210) | MIC (A. fumigatus) | MIC (A. niger) | MIC (A. terreus 49) | MIC (A. terreus) | MIC Scedosporium apiospermum 13486 [1] | MIC ([1]; Scedosporium apiospermum, 13486) | MIC [2] | MIC [3] | MIC [4] | MIC [5] | MIC [6] | MIC [7] | MIC [8] | MIC [9] | MIC [10] | survival [11]
1 | C[C@@H](c1ncncc1F)[C@](O)(Cn1cncn1)c1ccc(F)cc1F [VRC, voriconazole] | no significant increase | – | – | – | – | – | – | – | – | – | – | – | – | – | – | – | – | – | –
2 | Cc1cc(C)nc(N2CCN(c3ccc(NC(=O)C(=O)c4c(-c5ccccc5)cc(C)n4C)cc3)CC2)c1 [Ref. Example 10, 2-(1,5-Dimethyl-3-phenyl-1H-pyrrol-2-yl)-N-{4-[4-(4,6-dimethyl-pyridin-2-yl)-piperazin-1-yl]-phenyl}-2-oxo-acetamide] | – | 0.04 to 0.06 µg/mL (≈ 0.0788 to 0.118 µM) | 0.02 to 0.04 µg/mL (≈ 0.0394 to 0.0788 µM) | 0.02 to 0.04 µg/mL (≈ 0.0394 to 0.0788 µM) | > 0.06 µg/mL | 0.02 to 0.04 µg/mL (≈ 0.0394 to 0.0788 µM) | 0.02 to 0.04 µg/mL (≈ 0.0394 to 0.0788 µM) | F (a grade of F represents an MIC of greater than 0.06 mg/L) | > 0.06 µg/mL | > 0.06 µg/mL | > 0.06 µg/mL | 0.02 to 0.04 µg/mL (≈ 0.0394 to 0.0788 µM) | > 0.06 µg/mL | 0.04 to 0.06 µg/mL (≈ 0.0788 to 0.118 µM) | > 0.06 µg/mL | > 0.06 µg/mL | 0.04 to 0.06 µg/mL (≈ 0.0788 to 0.118 µM) | > 0.06 µg/mL | 100%
